Laboratory results reported in patent publication US10961234B2, “Oxazole derivatives for use in the treatment of cancer” (LIFEARC, priority 2016, dated 2021).

Experiments:
[1] = target: T1, WT full length PAICS (Homo sapiens, UniProt P22234); assay: Biochemical assay to measure PAICS activity (Transcreener ADP2 FI, SAICAR synthetase reaction); settings: PAICS 2.5 nM, 30 mins pre-incubation, ADP detection by fluorescence intensity
T1 construct: 5 μl WT full length PAICS (final assay concentration, fac, 2.5 nM) in basic buffer
T1 sequence (P22234 1-425): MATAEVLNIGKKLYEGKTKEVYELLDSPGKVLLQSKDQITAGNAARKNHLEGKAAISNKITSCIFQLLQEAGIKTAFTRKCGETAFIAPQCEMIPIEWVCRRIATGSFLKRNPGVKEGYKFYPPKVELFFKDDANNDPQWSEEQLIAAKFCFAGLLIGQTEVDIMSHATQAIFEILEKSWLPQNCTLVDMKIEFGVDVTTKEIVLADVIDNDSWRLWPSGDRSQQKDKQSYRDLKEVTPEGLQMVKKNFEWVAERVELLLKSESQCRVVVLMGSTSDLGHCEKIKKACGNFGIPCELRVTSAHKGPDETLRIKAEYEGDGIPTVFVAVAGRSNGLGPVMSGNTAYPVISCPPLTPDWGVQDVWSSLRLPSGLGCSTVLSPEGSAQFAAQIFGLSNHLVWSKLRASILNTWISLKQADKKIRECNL
Outline: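 Enzyme (2.5 nM) pre-incubated 30 min RT with compound (top 1 mM or 30 μM, half-log 10-point, duplicate) in 50 mM Tris-HCl pH8, 0.5 mM EDTA; CAIR (10 μM, ~5 μM after 1 h AIR/CAIR equilibration with MgCl2/KHCO3) then ATP/aspartate (30 μM/180 μM) for 30 min RT. ADP read by Transcreener fluorescence intensity (590/617 nm).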

[2] = system: LM2 and MDA-MB-231 breast cancer cell lines; assay: PAICS 2D cell proliferation assay; type: cell-based; settings: Homo sapiens; 72 hours incubation; cell line (LM2 or MDA-MB-231) not given
Outline: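 Cells seeded at 1000/well, dosed after 24 h with a 10-point ½-log series (top 100 μM, 1% DMSO final), then incubated 72 h at 37 °C. Dead cells measured by CellTox Green DNA staining and viability by CellTiter-Glo ATP luminescence, both expressed as % of controls (mean±SEM, duplicate curves).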

[3] = system: wild type LM2 and CRISPR edited LM2; assay: Cell potency in CRISPR edited (PAICS knock-out) LM2 versus wild type LM2; type: cell-based, human; settings: CRISPR edited LM2 vs wild type LM2
Protocol: Cas9 nuclease-mediated gene editing (Sander and Joung, 2014) was performed using a CRISPR RNA guide sequence ([…], PAM: AGG) targeting exon 3 in the human PAICS gene (accession number: NM_006452).
Stable cell clones were isolated and gene disruption confirmed by DNA sequencing and the absence of PAICS cellular protein expression confirmed by Western blotting.
A small set of compounds were tested against wild type LM2 and CRISPR edited LM2 to see to what extent the cellular potency was driven by PAICS mediated effects.

| SMILES | IC50 [1] | EC50 [2] | Potency shift: CRISPR Cell EC50/WT Cell EC50 [3] |
| --- | --- | --- | --- |
| CN1CCN(c2ccc(-c3ccc(Cl)c(NC(=O)c4coc(N)n4)c3)cn2)CC1 [Example 37, 2-Amino-N-{2-chloro-5-[6-(4-methylpiperazin-1-yl)pyridin-3-yl]phenyl}-1,3-oxazole-4-carboxamide] | > 100 nM | 100 to 250 nM | >10 |
| CCNCCCn1cc(-c2ccc(Cl)c(NC(=O)c3coc(N)n3)c2)cn1 [Example 47, 2-Amino-N-(2-chloro-5-(1-(3-(ethylamino)propyl)-1H-pyrazol-4-yl)phenyl)oxazole-4-carboxamide] | 10 to 25 nM | < 100 nM | >80 |
| CN(C)CCCOc1ncc(-c2ccc(Cl)c(NC(=O)c3coc(N)n3)c2)s1 [Example 86, 2-Amino-N-(2-chloro-5-{2-[3-(dimethylamino)propoxy]-1,3-thiazol-5-yl}phenyl)-1,3-oxazole-4-carboxamide] | < 10 nM | < 100 nM | >30 |
